Patent publication US20110160311A1, “Sweetness Enhancers, Compositions Thereof, and Methods for Use” (The Coca-Cola Company, priority 2009, published 2011)

Assays:
[1] = Sweetness enhancement of glucose, fructose or sucrose at 6% SE in water by additive at its threshold level; type: in vivo, human; design: key: T: Slight thicker-like sweetness (not intensity factor).; No difference; N(S+): No difference but slightly more sweet (0.5-0.75%); +S: More sweetness intensity (~1.0% SE); ++S: Much more sweetness intensity (~2.0% SE); settings: room temperature, additive at its Table 1 threshold level; for Sensory result versus FRU 55,000 ppm: fructose at 6% SE in water; for Sensory result versus GLU 99,000 ppm: glucose at 6% SE in water; for Sensory result versus SUC 60,000 ppm: sucrose at 6% SE in water
Experimental: (§1) A first sip (approximately 2.2 mL) of a ca. 20 mL control composition was taken and swallowed. After waiting for a time ranging from 15 to 25 seconds, a second sip of control composition was taken and swallowed, and the sweetness and/or taste of the control composition was noted. After waiting for a time ranging from 15 to 25 seconds, these steps were repeated with a comparative composition. The sweetness and taste differences between the control and the comparative composition were noted. For each tested composition, this cycle was repeated once to confirm the initial findings. All samples were measured at average 23.0° C.±1° C. between samples for consistent comparison and to minimize any effects of temperature on the perceived taste or sweetness of the composition.
(§2) To perform the taste test, three sweetener samples were paired with one additive and taste tested as described above. A three minute break was taken before tasting another three sweetener samples paired with a different additive. Up to 10 additives per day were used to minimize a fatigue factor. Before tasting, at least 1.5 hours elapsed after ingestion of any food, drink or nicotine. The tests were repeated on a different date to validate the initial findings.
The twenty-one entities above were combined in a concentration at the sweetness detection threshold level listed in Table 1, with one of Glucose (GLU), Fructose (FRU), and Sucrose (SUG), each at a fixed SE (Sucrose Equivalents) level of 6%. The sweetness of the compositions was measured as described above at room temperature.

[2] = Sweetness detection threshold level in water, multi-sip and swallow taste method; type: in vivo, human; settings: for Sweetness Detection Threshold Level: in water at room temperature
Text: As used herein, the terms “sweetness threshold,” “sweetness recognition threshold,” and “sweetness detection threshold” are understood to mean the level at which the lowest known concentration of a certain sweet compound that is perceivable by the human sense of taste and it can vary from person to person. For example, a typical sweetness threshold level for sucrose in water can be 0.5%.
Further for example, the at least one sweetness enhancer to be used can be assayed in water at least 25% lower and at least 25% higher than the sucrose detection level of 0.5% in water to determine the sweetness threshold level.
as §1, §2
The sweetness detection threshold levels for 21 entities were measured by a single assessor in water at room temperature according to the multi-sip and swallow taste method described herein.

[3] = By-products of 500 ppm REB A after two months of storage in phosphoric acid at RT; type: physicochemical; settings: approximated concentration of by-product of 500 ppm REB A
[4] = value is min. off-taste threshold

Compound | Sensory result versus FRU 55,000 ppm [1] | Sensory result versus GLU 99,000 ppm [1] | Sensory result versus SUC 60,000 ppm [1] | Sweetness Detection Threshold Level ([2]; single assessor) | Levels After 2 Month of Storage [3] | Sweetness Threshold Level ([2]; estimation sweetness/off-taste threshold in water at room temperature (RT)) | Sweetness Detection Threshold Level [2, 4]
C=C1C[C@@]23CC[C@H]4[C@@](C)(CCC[C@@]4(C)C(=O)O[C@@H]4O[C@H](CO)[C@@H](O)[C@H](O)[C@H]4O)[C@@H]2CC[C@]1(O[C@@H]1O[C@H](CO)[C@@H](O)[C@H](O[C@@H]2O[C@H](CO)[C@@H](O[C@H]4O[C@H](CO)[C@@H](O)[C@H](O)[C@H]4O)[C@H](O)[C@H]2O)[C@H]1O[C@@H]1O[C@H](CO)[C@@H](O)[C@H](O)[C@H]1O)C3 [13-[(2-O-β-D-glucopyranosyl-3-O-(4-O-α-D-glucopyranosyl)-β-D-glucopyranosyl-β-D-glucopyranosyl)oxy] kaur-16-en-18-oic acid β-D-glucopyranosyl ester] | T | T | N | 50 ppm |  |  | 
CC1=CC23CCC4C(C)(C(=O)OC5OC(CO)C(O)C(O)C5O)CCCC4(C)C2CCC1(OC1OC(CO)C(O)C(OC2OC(CO)C(O)C(O)C2O)C1OC1OC(CO)C(O)C(O)C1O)C3 [13-[(2-O-β-D-glucopyranosyl-3-O-β-D-glucopyranosyl-β-D-glucopyranosyl)oxy] kaur-15-en-18-oic acid β-D-glucopyranosyl ester] | N(S+) (No difference but slightly more sweet (0.5-0.75%)) | N | N(S+) (No difference but slightly more sweet (0.5-0.75%)) | 25 ppm |  |  | 
CC1=CC23CCC4C(C)(C(=O)O)CCCC4(C)C2CCC1(OC1OC(CO)C(O)C(OC2OC(CO)C(O)C(O)C2O)C1OC1OC(CO)C(O)C(O)C1O)C3 [13-[(2-O-β-D-glucopyranosyl-3-O-β-D-glucopyranosyl-β-D-glucopyranosyl)oxy] kaur-15-en-18-oic acid] | N | N | N | 35 ppm | 1 ppm | 35 ppm | 
C=C1C[C@@]23CC[C@H]4[C@@](C)(CCC[C@@]4(C)C(=O)O[C@@H]4O[C@H](CO)[C@@H](O)[C@H](O)[C@H]4O)[C@@H]2CC[C@]1(O[C@@H]1O[C@H](CO)[C@@H](O)[C@H](O[C@@H]2O[C@H](CO)[C@@H](O)[C@H](O)[C@H]2O)[C@H]1O)C3 [13-[(3-O-β-D-glucopyranosyl-β-D-glucopyranosyl)oxy] kaur-16-en-18-oic acid β-D-glucopyranosyl ester] | N | N | N | 35 ppm |  |  | 
C=C1CC23CCC4C(C)(C(=O)OC5OC(CO)C(O)C(O)C5O)CCCC4(C)C2CCC1(O)C3 [13-hydroxy-kaur-16-en-18-oic acid β-D-glucopyranosyl ester] | N | N | N |  |  |  | 10 ppm
C[C@@]12CC[C@@H]3[C@@](CC[C@H]4[C@@]3(C)CCC[C@@]4(C)C(=O)OC3OC(CO)C(O)C(O)C3O)(CC1=O)C2 (stereo partly drawn) [13-methyl-16-oxo-17-norkauran-18-oic acid β-D-glucopyranosyl ester] | N | N | N |  |  |  | 15 ppm
C=C1C[C@@]23CC[C@H]4[C@@](C)(CCC[C@@]4(C)C(=O)O[C@@H]4O[C@H](CO)[C@@H](O)[C@H](O)[C@H]4O)[C@@H]2CC[C@]1(O[C@@H]1O[C@H](CO)[C@@H](O)[C@H](O)[C@H]1O[C@@H]1O[C@@H](C)[C@H](O)[C@@H](O)[C@H]1O)C3 [Dulcoside A] | N | N | N | 50 ppm |  |  | 
C[C@H](CC[C@@H](O[C@@H]1O[C@H](CO[C@@H]2O[C@H](CO)[C@@H](O)[C@H](O)[C@H]2O)[C@@H](O)[C@H](O)[C@H]1O[C@@H]1O[C@H](CO)[C@@H](O)[C@H](O)[C@H]1O)C(C)(C)O)[C@H]1CC[C@@]2(C)[C@@H]3CC=C4[C@@H](CC[C@H](O[C@@H]5O[C@H](CO[C@@H]6O[C@H](CO)[C@@H](O)[C@H](O)[C@H]6O)[C@@H](O)[C@H](O)[C@H]5O)C4(C)C)[C@]3(C)[C@H](O)C[C@]12C [Mogroside V] | N | N | N | 20 ppm |  |  | 
C=C1C[C@@]23CC[C@H]4[C@@](C)(CCC[C@@]4(C)C(=O)O[C@@H]4O[C@H](CO)[C@@H](O)[C@H](O)[C@H]4O)[C@@H]2CC[C@]1(O[C@@H]1O[C@H](CO)[C@@H](O)[C@H](O[C@@H]2O[C@H](CO)[C@@H](O)[C@H](O)[C@H]2O)[C@H]1O[C@@H]1O[C@H](CO)[C@@H](O)[C@H](O)[C@H]1O)C3 [Rebaudioside A] | N | N | N | 12.6 ppm |  |  | 
C=C1C[C@@]23CC[C@H]4[C@@](C)(CCC[C@@]4(C)C(=O)O[C@@H]4O[C@H](CO)[C@@H](O)[C@H](O)[C@H]4O[C@@H]4O[C@H](CO)[C@@H](O)[C@H](O)[C@H]4O)[C@@H]2CC[C@]1(O[C@@H]1O[C@H](CO)[C@@H](O)[C@H](O[C@@H]2O[C@H](CO)[C@@H](O)[C@H](O)[C@H]2O)[C@H]1O[C@@H]1O[C@H](CO)[C@@H](O)[C@H](O)[C@H]1O)C3 [Rebaudioside D] | N | N | N(S+) (No difference but slightly more sweet (0.5-0.75%)) | 25 ppm |  |  | 
C=C1C[C@@]23CC[C@H]4[C@@](C)(CCC[C@@]4(C)C(=O)OC4OC(C(=O)O)C(O)C(O)C4O)[C@@H]2CC[C@]1(O)C3 (stereo partly shown) [Steviol glucuronide] | N | N | N | 85 ppm |  |  | 
C=C1C[C@@]23CC[C@H]4[C@@](C)(CCC[C@@]4(C)C(=O)O)[C@@H]2CC[C@]1(O[C@@H]1O[C@H](CO)[C@@H](O)[C@H](O)[C@H]1O[C@@H]1O[C@H](CO)[C@@H](O)[C@H](O)[C@H]1O)C3 [Steviolbioside] | N | N | N | 50 ppm |  |  | 
C=C1C[C@@]23CC[C@H]4[C@@](C)(CCC[C@@]4(C)C(=O)O[C@@H]4O[C@H](CO)[C@@H](O)[C@H](O)[C@H]4O)[C@@H]2CC[C@]1(O[C@@H]1O[C@H](CO)[C@@H](O)[C@H](O)[C@H]1O[C@@H]1O[C@H](CO)[C@@H](O)[C@H](O)[C@H]1O)C3 [Stevioside] | N | N | N | 25 ppm |  |  | 
Rebaudioside F | N | N | N(S+) (No difference but slightly more sweet (0.5-0.75%)) | 25 ppm |  |  | 
